Assays:
[1] = test system: C33A cervical cancer cells; assay: In vitro clonogenic survival; assay type: cell-based, Human; settings: for clonogenic growth: with or without radiation
Procedure: C33A cervical cancer cells (0.5×10^6 cells/condition) were plated in T25 flasks 24 hours before treatment. Cells were treated with Cis-Pt at 0, 1, 3, or 6 μM for 4 hours, and subjected to irradiation at 0 or 6 Gy (4 Gy/min). Cells were then lifted with trypsin, counted, and were plated in triplicates for each condition at 500 cells per well in 24 well plates. After 12 days of culture, cells were fixed and stained with 0.5% Crystal Violet (Sigma Aldrich) in methanol, washed, and dried.

[2] = In vivo biodistribution of Pt in subcutaneous C33A tumor model (ICP-MS); design: species or system athymic nude mice; settings: systemic (IV injection) delivery, 1 mg/kg, 24 hours
[3] = test system: Cervical cancer cell lines; assay: Pt content in cell lines in vitro (ICP-MS); assay type: cell-based, Human; settings: treated at 6 μM (Av-IC50) for 48 hours, average
Procedure: Cervical cancer cell lines (10×10^6 cells) were treated Cis-Pt at Av-IC50 for 48 hours. Cells were then lifted with trypsin (0.05% Trypsin-EDTA, Gibco Life Technologies), spun down, and washed 3 times, to eliminate free Cis-Pt. Cell pellets were then weighed, digested, and analyzed by ICP-MS, and the average Pt content in cell lines in vitro (Av-Pt-in vitro) was calculated.

[4] = test system: C33A subcutaneous cervical tumors; assay: In vivo efficacy, tumor progression with or without radiation; design: species or system athymic nude mice
Procedure: C33A cells (2×10^6/mouse) were suspended in 50% Matrigel and 50% DMEM media. The suspended C33A cells were injected subcutaneously around the lower back of 42 female athymic nude mice that were 6 to 8 weeks old. Tumor progression was confirmed after 3 weeks, and mice were then randomized into 6 groups (n=7) and treated with: (1) tail vein injection of PBS (Vehicle-IV), (2) Cis-Pt-IV at 1 mg/kg, (3) Cis-Pt-Implant at 1 mg Cis-Pt/kg, (4) Vehicle-IV+radiation (5 days×2 Gy/day), (5) Cis-Pt-IV+radiation, and (6) Cis-Pt-Implant+radiation.
In a separate experiment, the effect of a fractionated radiation dose was compared to a single high dose of radiation administered concurrently with Cis-Pt-Implants. C33A cells (2×10^6/mouse) were suspended in 50% Matrigel and 50% DMEM media. The suspended C33A cells were injected subcutaneously around the lower back of 14 female athymic nude mice that were 6 to 8 weeks old (Charles Rivers Laboratories). Tumor progression was confirmed after 3 weeks, mice were then intratumorally implanted with Cis-Pt-loaded implant (1 mg/kg) and randomized into 2 groups (n=7), treated with: (1) fractionated radiation (5 days×2 Gy/d), mimicking external beam radiation; or (2) a single high dose of 8 Gy, mimicking brachytherapy.
For the in vivo experiments above, tumor progression was monitored by measurement of tumor sizes in all treatment groups every 2 days. […]

[5] = 24 hours after IV injection of 100 mg/m^2; cited from earlier work
[6] = test system: cervical cancer cell lines C33A, Me-180, HT3, Caski, and SiHa; assay: In vitro cytotoxicity of Cis-Pt, MTT assay; assay type: cell-based, Human; settings: average dose-response curve of 5 cell lines, 48 hours, read-out: average IC50 (Av-IC50)
Procedure: Human cervical cancer cell lines C33A, Me-180, HT3, Caski, and SiHa were purchased from American Type Culture Collection (ATCC; Manassas, Va.). Cell lines were cultured in Dulbecco's Modified Eagle Medium (DMEM; Gibco Life Technologies, Grand Island, N.Y.) supplemented with 10% fetal bovine serum (FBS; Gibco Life Technologies), 2 mmol/L of L-glutamine, 100 ng/mL penicillin, and 100 ng/mL streptomycin (Corning CellGro, Mediatech, Manassas, Va.). All cells were cultured at 37° C., 5% CO2 in a NuAire water jacket incubator (Plymouth, Minn.).
The in vitro cytotoxicity on cervical cancer cell lines was assessed using an MTT assay (Sigma Aldrich). Briefly, cells were seeded at 5×10^3 cells/well in 96-well plates overnight at 37° C. to promote their adhesion to the plates. […] After 48 hours of treatment, MTT solution was added to the cells for 3 hours, and then the stop solution was added to dissolve the formazan crystals overnight. The wells were read with SpectraMax i3 multimode microplate spectrophotometer (Molecular Devices, San Jose, Calif.) at 570 nm. Dose-response curves were graphed and the average dose-response curve was calculated.

[7] = Pt accumulation in cervical cancer patient biopsies (ICP-MS); assay type: in vivo, Human; settings: for drug accumulation in patient tissues lower than in cell lines at in vitro efficacious concentration: patient biopsies vs cell lines treated at 6 μM
Procedure: Patients with biopsy-proven cervical carcinoma were enrolled into an institutional review board-approved prospective study in which cervical tumor biopsies were obtained 3 weeks into chemoradiation treatment. All patients were treated with definitive chemoradiation treatment, which consisted of external beam radiation therapy to the pelvis (50.4 Gy) 4 days per week using intensity-modulated radiation therapy with a split-pelvis technique with 6 weekly brachytherapy boosts to a dose of 6.5 Gy per fraction to point A, starting at week 1. Concurrent with radiation therapy, all patients received the conventional treatment of cisplatin (40 mg/m^2, intravenous [IV]) weekly. Cervical tumor samples were collected immediately before delivery of the third brachytherapy treatment, approximately half-way through the treatment course. Samples were collected, immediately snap-frozen, and processed for storage. The average time between cisplatin administration and biopsy was 4.5 days (range, 1-17 days).
To determine tissue Cis-Pt accumulation within the patient biopsy samples, tissue digestion and inductively coupled plasma mass spectrometry (ICP-MS) were performed to quantify the levels of Pt in the samples. Briefly, biopsy samples were thawed and precisely weighed (±0.1 mg) before being digested in concentrated nitric acid (HNO3) overnight. Samples were then diluted with deionized water to a final 5% HNO3 (v/v) and digested using a microwave digestion system (MARS 6 Microwave Digestion System, CEM, Matthews, N.C.) at 200° C. for 45 minutes. Samples were analyzed with ICP-MS (ELAN DRC II ICP-MS, Perkin Elmer, Inc, Waltham, Mass.) for Pt content, against a calibration curve of Pt standards of 0, 0.1, 1, 10, 50, 100, and 250 parts per billion (ppb) in 5% HNO3, which were prepared from 10 parts per million Pt standard solution (Inorganic Ventures, Christiansburg, Va.). Terbium was used as an internal standard throughout the ICP-MS analysis. The average Pt content in clinical biopsies (Av-Pt-Clin) was calculated.
[…]

[8] = test system: Cervical cancer cell lines; assay: In vitro radio-sensitization with Cis-Pt, MTT assay and combination index; assay type: cell-based, Human; settings: for sensitization to radiation therapy: 6 Gy
Procedure: Clinically relevant Pt concentration (Clin-conc) was estimated as a fraction of Av-IC50 based on the relative difference between tissue Pt contents in clinical biopsies and in vitro: Av-IC50×(Av-Pt-Clin/Av-Pt-in vitro). The radiosensitizing effect of Cis-Pt on cervical cancer cell lines was assessed using an MTT assay. Briefly, cells were treated with or without Cis-Pt at Av-IC50 (6 μM) or Clin-conc (1 μM) for a duration of 24 or 48 hours. Additionally, cells were also treated with or without a single-fraction dose of 6 Gy (4 Gy/min) using an RS2000 160 kV x-ray Irradiator equipped with a 0.3-mm copper filter (Rad Source Technologies Inc, Buford, Ga.), at the beginning of the treatment. At the end of each treatment, an MTT assay was performed to determine the survival of the cells.
The combination effect between Cis-Pt treatment and radiation was evaluated by calculating the combination index (CI) using the formula: CI=(Ea×Eb)/Eab, where Ea and Eb are the individual effects (fractional killing, 0≤Ei≤1) and Eab is the combination effect of drugs a and b. This index represents the ratio between the predicted combination effect and the actual combination effect. When the CI=1, the effect is additive. When the CI<1, the effect is supra-additive; when CI>1, the effect is sub-additive.

For `N.N.[Cl][Pt][Cl]` [Cis-Pt, cis-Diammineplatinum(II) dichloride], the clonogenic cell survival ([1]; 1 μM, alone or in combination with radiation (6 Gy)) was “unable to limit clonogenic cell survival”, the clonogenic growth ([1]; 3 μM) was “significantly restricted clonogenic growth” and the clonogenic growth ([1]; 6 μM) was “significantly restricted clonogenic growth”. For the same molecule, the “Pt concentration in the tumor” value [2] was 53 ng Pt/g tissue, the “Pt levels in cell lines” value [3] was “about 2560 ng Pt/g tissue” and the “treatment outcome with fractionated radiation” value ([4]; systemic delivery 1 mg/kg + 2 Gy×5 days) was “improved treatment outcome compared with radiation alone”. For the same molecule, the tumor progression ([4]; systemic delivery (IV) 1 mg/kg, without radiation) was “did not alter tumor progression”, the “intratumoral platinum (Pt) concentration” value [5] was 0.9 ng/mg and the IC50 [6] was 6 µM. For the same molecule, the “Pt levels detected in patient tissues” value ([7]; 40 mg/m^2 IV weekly, biopsies about 3 weeks into chemoradiation, average of 20) was “about 430 ng Pt/g tissue”, the “influence of time of biopsy since last injection on Pt level within the tumor” value ([7]; 1-17 days after injection) was “not a major factor” and the “drug accumulation in patient tissues lower than in cell lines at in vitro efficacious concentration” value [7] was “about 6 fold”. For the same molecule, the “drug accumulation in patient tissues lower than in cell lines at in vitro efficacious concentration” value ([7]; listed as Cisplatin) was 6 fold, the “sensitization to radiation therapy” value ([8]; 1 μM Cis-Pt) was “limited radio-sensitization” and the “combination effect of Cis-Pt and radiation by CI” value ([8]; 1 μM treatment) was “sub-additive”. For the same molecule, the “sensitization to radiation therapy” value ([8]; 6 μM Cis-Pt) was “significant sensitization to radiation therapy in all cell lines” and the “combination effect of Cis-Pt and radiation by CI” value ([8]; 6 μM treatment) was “supra-additive”.

From US20230142353A1, “IMPLANT DEVICES AND METHODS FOR TREATMENT OF CERVICAL CANCER” (Washington University, priority 2020, published 2023)
